Values quoted from earlier work as cited in US8912356B2, “DCC mediated coupling for halofenate manufacture” (Metabolex, Inc., priority 2013, dated 2014).

Columns and labels:
[1] = administration of racemic mixture
cytochrome P450 2C9 = cytochrome P450 2C9 (Homo sapiens, UniProt P11712); conditions: relative to (+)-enantiomer of halofenic acid
cytochrome P450 2C9, sequence (P11712 whole entry): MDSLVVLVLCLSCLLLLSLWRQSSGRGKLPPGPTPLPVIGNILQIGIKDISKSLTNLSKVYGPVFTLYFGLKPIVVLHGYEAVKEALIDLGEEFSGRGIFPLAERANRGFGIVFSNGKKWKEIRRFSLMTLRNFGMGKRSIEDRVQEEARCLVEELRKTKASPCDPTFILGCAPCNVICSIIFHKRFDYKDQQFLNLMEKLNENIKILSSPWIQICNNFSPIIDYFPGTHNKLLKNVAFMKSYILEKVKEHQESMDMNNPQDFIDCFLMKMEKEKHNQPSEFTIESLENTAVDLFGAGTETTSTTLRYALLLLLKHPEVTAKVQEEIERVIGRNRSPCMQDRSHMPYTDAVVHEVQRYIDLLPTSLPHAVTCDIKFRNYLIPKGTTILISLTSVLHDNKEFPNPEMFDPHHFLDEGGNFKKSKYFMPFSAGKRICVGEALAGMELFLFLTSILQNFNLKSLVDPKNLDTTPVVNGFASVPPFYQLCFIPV

In the case of `CC(=O)NCCOC(=O)C(Oc1cccc(C(F)(F)F)c1)c1ccc(Cl)cc1` (racemic) [halofenate, 2-acetamidoethyl (4-chlorophenyl) (3-trifluoromethylphenoxy)acetate], the plasma glucose [1] is given as “lowering”, the serum uric acid [1] is given as “lowering” and the triglycerides [1] is given as “lowering”. The “potential adverse drug-drug interactions” value (racemic halofenate, with Coumadin) was “difficulties controlling anticoagulation with Coumadin™” and the adverse effects (racemic mixture) was “nausea, gastrointestinal ulcers, and gastrointestinal bleeding”.

In the case of `O=C(O)[C@H](Oc1cccc(C(F)(F)F)c1)c1ccc(Cl)cc1` [(−)-enantiomer of halofenic acid, (−)-4-chloro-α-(3-trifluoromethylphenoxy)phenylacetic acid], the “ability to inhibit cytochrome P450 2C9 compared to the (+)-enantiomer” value (cytochrome P450 2C9) is given as “about twenty-fold less active”.
